Patent US20070078185A1, “Methods and compositions for controlling invertebrate pests” (priority 2005, published 2007)

How the values were obtained:
C. elegans [1] = experiment: In vivo response test: suppression of head oscillations in response to anterior touch, C. elegans on agar plates; conditions: compound added to C. elegans grown on agar plates at 0.3 mg/ml
Experimental: Behavioral assays were performed with young adults at room temperature (22-24° C.) and the different genotypes were scored in parallel on independent days. Egg-laying assays were performed as described by Koelle and Horvitz (Cell 84:115 (1996)). Suppression of head oscillations was tested by striking animals that were outside the bacterial lawn with a fine eyelash behind the posterior bulb of the pharynx; head oscillations were scored during backing response. Nose touch, osmotic avoidance touch were tested as previously described (see, for example, Way et al., Genes Dev. 3:1823-1833 (1989); or Bargmann et al., Cold Spring Harb. Symp. Quant. Biol. 55:529-538 (1990)). […] Animals were tested twenty-four hours after they were picked as late L4. Laser-ablated animals were tested at least ten times. […] Laser ablated animals were tested at least 20 times. Reversal assays were performed as described by Tsalik et al., J. Neurobiol. 56:178-197 (2003). Synthesis of 4-hydrazinomethyl-benzene-1,3-diol (compound 1). [drawing 4]
Alternatively, putative tyrosine decarboxylase inhibitors can be screened in vivo by observing its effect on invertebrates. […] Furthermore, a tyrosine decarboxylase inhibitor is expected to cause egg laying defects in nematodes, fruit flies, and other invertebrates. […]

C. elegans [2] = conditions: exogenous octopamine (Horvitz et al., Science 216:1012-1014 (1982)); cited from earlier work
C. elegans [3] = experiment: Egg-laying assay with exogenous amine on Petri plates; assay type: in vivo; conditions: wild-type animals, Petri plates with bacteria containing 20 mM tyramine
Experimental: FIGS. 5A-SC are graphs showing that tdc-1 mutant nematodes are hyperactive in egg laying. […] Error bars indicate standard errors of the means. […] Single wild-type animals were transferred to Petri dishes with bacteria containing either no tyramine (n=13) or 20 mM tyramine (n=12). At the indicated times after transfer the number of eggs laid was counted. Error bars indicate standard errors ofthe means.
We therefore tested the effect of exogenous tyramine on egg laying behavior. Egg laying was inhibited on Petri plates containing 20 mM tyramine (FIG. 5C). […] Egg laying is regulated in part by the serotonergic HSN neurons, which induce muscle contraction of the vulva muscles (Trent et al., Genetics 104:619-647 (1983)).
Behavioral assays were performed with young adults at room temperature (22-24° C.) and the different genotypes were scored in parallel on independent days. Egg-laying assays were performed as described by Koelle and Horvitz (Cell 84:115 (1996)). Suppression of head oscillations was tested by striking animals that were outside the bacterial lawn with a fine eyelash behind the posterior bulb of the pharynx; head oscillations were scored during backing response. Nose touch, osmotic avoidance touch were tested as previously described (see, for example, Way et al., Genes Dev. 3:1823-1833 (1989); or Bargmann et al., Cold Spring Harb. Symp. Quant. Biol. 55:529-538 (1990)). […]

SMILES: NC(CO)C(=O)NNCc1ccc(O)cc1O (racemic) [compound 2, N-(DL-seryl)-N′-(2,4,-dihydroxybenzyl) hydrazine]
- suppression of head oscillations in response to anterior touch (C. elegans [1]): fail to suppress head oscillations

SMILES: NCC(O)c1ccc(O)cc1 (stereo not drawn) [octopamine]
- effect of exogenous octopamine on egg laying (C. elegans [2]): inhibitory effect

SMILES: NCCc1ccc(O)cc1 [tyramine]
- effect of exogenous tyramine on egg laying (C. elegans [3]): inhibited
